Reference: patent US11420976B2 (priority 2020, dated 2022)
Where two headings read alike, the source gives them in different places.

Legend:
[1] = system: rHMPV-GFP (recombinant HMPV CAN97-83, MPV-GFP1); test: HMPV antiviral assay (eGFP fluorescence in Vero E6 cells); assay type: cell-based; conditions: read-out: rHMPV-GFP EC50
Description: HMPV antiviral activity was evaluated using a recombinant version of HMPV CAN97-83 engineered to contain the coding sequence for enhanced green fluorescence protein (eGFP) in the 3′ end of the virus genome (MPV-GFP1, ViraTree). Vero E6 cells (ATCC #CCL-7) were seeded at a density of 12,000 cells/100 μL/well into 96-well cell plates (VENDOR) one day prior to the assay. On the day of screening, the cell culture medium was aspirated from the wells and cells were washed twice with serum-free Eagle's Modified Essential Medium (EMEM, ATCC #) containing 1% penicillin-streptomycin (Invitrogen) (SF-EMEM). Cell washes were performed by dispensing 100 μL SF-EMEM per well and immediately aspirating the wash medium from the well. Following the second wash step, serum-free OptiMEM (Invitrogen, Cat No.) (SF-OptiMEM) containing 0.5 μg/mL TPCK-Trypsin (VENDOR) and 1% penicillin-streptomycin was added to the cells at 50 μL/well. Compounds were added into the 96-well plates using a JANUS automated liquid handling system (VENDOR). Compounds were initially diluted 1:50 into an intermediate 96-well plate containing SF-OptiMEM prior to transfer to the assay plate (25 μL/well). Each of the test compounds was tested in duplicate wells at final concentrations starting from 8 μM or 2 μM using ½ stepwise dilutions for a total of 8 points. Virus infection was performed by preparing a working stock of MPV-GFP1 at a multiplicity of infection (MOI) equal to 0.05/25 μL and aliquoting 25 μL of virus inoculum to the compound and positive control wells. SF-OptiMEM was added (25 μL/well) to the appropriate wells to serve as a virus-free negative control for the assay. The final DMSO concentration of all wells is 0.5%. Plates were incubated at 32° C., 5% CO2 for 5 days. After 5 days incubation, eGFP fluorescence intensity was measured at […] using a Spectramax i3X plate reader (VENDOR). Percent viral inhibition was calculated using the following equation: y=[[…]]×100 Where XQ is the fluorescence intensity measured in a well containing recombinant MPV-GFP1-infected, compound-treated cells and XP is the average fluorescence intensity measured in the wells containing untreated cells infected with recombinant virus. EC50 values were then calculated by non-linear regression using a four parameter curve logistic equation. The curve fit model employed was XLFit Dose Response One Site Model 200: y=(A+(B/(1+((x/C)^D)))) Where A is the minimum y value, B is the maximum y value, C is the log EC50 value, and D is the slope factor. The EC50 of each compound is listed in Table 2 and EC50 ranges are as follows: A<0.2 μM; B≥0.2 μM.

[2] = system: Human RSV-A (“Long” strain); test: RSV-A assay (CPE, ATPlite readout in Hep-2 cells); assay type: cell-based; conditions: Hep-2 cells, MOI 0.1, 5-day incubation, ATPlite, read-out: Human RSV-A (“Long” strain) EC50
From the text: Hep-2 cells, (originally derived from tumors grown in irradiated-cortisonised weanling rats that had been injected with epidermoid carcinoma tissue from a person's larynx, but later found to be indistinguishable from HeLa cells by PCR DNA analysis), were used for the culturing of genotype A, “Long” strain RSV. Flasks were inoculated with RSV and viral stocks were collected once cytopathic effect (CPE) was greater than 90%. Viral stocks in 25% sucrose media were snap frozen using liquid nitrogen to increase viral stability. Viral stock titers were quantified by tissue culture infectious dose 50% (TCID50) using 8,000 cells per well and 3-fold viral dilutions across a 96-well plate, cultured for 4 days. Viral stock titers were also quantified by a plaque forming unit assay, as described elsewhere.
Following extensive parameter testing, the final assay is run as follows: Hep-2 cells are seeded into the inner 60 wells of a 96-well plate at 8,000 cells per well in a volume of 50 μL using Growth Media (DMEM without phenol red, 1% L-Glut, 1% Penn/Strep, 1% nonessential amino acids, 10% heat-inactivated FBS). 2-fold serial dilutions of control and test compounds are added to the wells in duplicate in a total volume of 25 μL. Viral stock is then added to the wells at a multiplicity of infection (MOI) of 0.1 in a volume of 25 μL, bringing the total volume of each well to 100 μL. The MOI is calculated using the PFU/mL, or TCID50 if unavailable. Each 96-well plate has a control column of 6 wells with cells and virus but no compound (negative control, max CPE), a column with cells but no compound or virus (positive control, minimum CPE), and a column with no cells or virus or compound (background plate/reagent control). The control wells with cells but no virus are given an additional […], of growth media containing an equal quantity of sucrose as those wells receiving the viral stock in order to keep consistent in media and volume conditions. The outer wells of the plate are filled with 125 μL of moat media (DMEM, 1% Penn/Strep) to act as a thermal and evaporative moat around the test wells. Following a 5-day incubation period, the plates are read using ATPlite (50 uL added per well), which quantifies the amount of ATP (a measure of cell health) present in each well. Assay plates are read using the Envision luminometer. […] EC50 ranges are as follows: A<0.2 μM; B≥0.2 μM.

[3] = human respiratory syncytial virus, 120 h

Compound | EC50 ([1]; Vero C1008, 120 h) [nM] | EC50 [2, 3] [nM] | EC50 ([1]; Vero E6 cells, MOI 0.05, 5 days at 32° C., eGFP fluorescence) [nM] | EC50 [2] [nM]
COc1cc(C(=O)NC[C@](O)(c2cc3c(c(-c4ccc(F)cc4)n2)OC[C@@]3(N)C(F)(F)F)C(F)(F)F)ccc1OC1CC1 [Example 1] | > 200 | < 200 |  | 
COc1cc(C(=O)NC[C@](O)(c2cc3c(c(-c4ccc(F)cc4)n2)OC[C@]3(N)C(F)(F)F)C(F)(F)F)ccc1OC1CC1 [Example 3, N—((S)-2-((S)-3-amino-7-(4-fluorophenyl)-3-(trifluoromethyl)-2,3-dihydrofuro[2,3-c]pyridin-5-yl)-3,3,3-trifluoro-2-hydroxypropyl)-4-cyclopropoxy-3-methoxybenzamide] | > 200 | < 200 |  | 
COc1cc(C(=O)NC[C@@](O)(c2cc3c(c(-c4ccc(F)cc4)n2)OC[C@]3(N)C(F)(F)F)C(F)(F)F)ccc1OC1CC1 [Example 4, N—((R)-2-((S)-3-amino-7-(4-fluorophenyl)-3-(trifluoromethyl)-2,3-dihydrofuro[2,3-c]pyridin-5-yl)-3,3,3-trifluoro-2-hydroxypropyl)-4-cyclopropoxy-3-methoxybenzamide] | > 200 | > 200 |  | 
COc1cc(C(=O)NC[C@](O)(c2cc3c(c(-c4ccc(F)cc4)n2)OC[C@@]3(N)C(F)(F)F)C(F)(F)F)cc2cccnc12 [Example 5, N—((S)-2-((R)-3-amino-7-(4-fluorophenyl)-3-(trifluoromethyl)-2,3-dihydrofuro[2,3-c]pyridin-5-yl)-3,3,3-trifluoro-2-hydroxypropyl)-8-methoxyquinoline-6-carboxamide] | > 200 | < 200 |  | 
COc1cc(C(=O)NC[C@](O)(c2cc3c(c(-c4ccc(F)cc4)n2)OC[C@]3(N)C(F)(F)F)C(F)(F)F)cc2cccnc12 [Example 6, N—((S)-2-((S)-3-amino-7-(4-fluorophenyl)-3-(trifluoromethyl)-2,3-dihydrofuro[2,3-c]pyridin-5-yl)-3,3,3-trifluoro-2-hydroxypropyl)-8-methoxyquinoline-6-carboxamide] | > 200 | < 200 |  | 
COc1cc(C(=O)NC[C@](C)(O)c2cc3c(c(-c4ccc(F)cc4)n2)OC[C@@]3(N)C(F)(F)F)ccc1OC1CC1 [Example 7, N—((S)-2-((R)-3-amino-7-(4-fluorophenyl)-3-(trifluoromethyl)-2,3-dihydrofuro[2,3-c]pyridin-5-yl)-2-hydroxypropyl)-4-cyclopropoxy-3-methoxybenzamide] | < 200 | < 200 |  | 
COc1cc(C(=O)NC[C@@](O)(CF)c2cc3c(c(-c4ccc(F)cc4)n2)OC[C@@]3(N)C(F)(F)F)ccc1OC1CC1 [Example 8] |  |  | < 200 | < 200
COc1cc(C(=O)NC[C@](O)(c2cc3c(c(-c4ccc(F)cc4)n2)OC[C@@]3(N)C(F)(F)F)C2CC2)ccc1OC1CC1 [Example 9, N—((S)-2-((R)-3-amino-7-(4-fluorophenyl)-3-(trifluoromethyl)-2,3-dihydrofuro[2,3-c]pyridin-5-yl)-2-cyclopropyl-2-hydroxyethyl)-4-cyclopropoxy-3-methoxybenzamide] | < 200 | < 200 |  | 
COc1cc(C(=O)NC[C@](O)(c2cc3c(c(-c4ccc(F)cc4)n2)OC[C@@]3(N)C(F)(F)F)C2CC2)cc2cccnc12 [Example 10] | > 200 | < 200 |  | 
N[C@@]1(C(F)(F)F)COc2c1cc([C@@](O)(CNC(=O)c1cc(OC3CC3)c3ncccc3c1)C1CC1)nc2-c1ccc(F)cc1 [Example 11, N—((S)-2-((R)-3-amino-7-(4-fluorophenyl)-3-(trifluoromethyl)-2,3-dihydrofuro[2,3-c]pyridin-5-yl)-2-cyclopropyl-2-hydroxyethyl)-8-cyclopropoxyquinoline-6-carboxamide] | > 200 | < 200 |  | 
COc1cc(C(=O)NC[C@](O)(c2cc3c(c(-c4ccc(F)cc4)n2)OC[C@@]3(NC(=O)COC(C)=O)C(F)(F)F)C(F)(F)F)ccc1OC1CC1 [Example 13, 2-(((R)-5-((S)-3-(4-cyclopropoxy-3-methoxybenzamido)-1,1,1-trifluoro-2-hydroxypropan-2-yl)-7-(4-fluorophenyl)-3-(trifluoromethyl)-2,3-dihydrofuro[2,3-c]pyridin-3-yl)amino)-2-oxoethyl acetate] | > 200 | < 200 |  | 
N[C@@]1(C(F)(F)F)COc2c1cc([C@@](O)(CNC(=O)c1ccc(OC3CC3)c(OC3CC3)c1)C1CC1)nc2-c1ccc(F)cc1 [Example 19, N—((S)-2-((R)-3-amino-7-(4-fluorophenyl)-3-(trifluoromethyl)-2,3-dihydrofuro[2,3-c]pyridin-5-yl)-2-cyclopropyl-2-hydroxyethyl)-3,4-dicyclopropoxybenzamide] | < 200 | < 200 |  | 
C[C@](O)(CNC(=O)c1ccc(OC2CC2)c(OC2CC2)c1)c1cc2c(c(-c3ccc(F)cc3)n1)OC[C@@]2(N)C(F)(F)F [Example 20, N—((S)-2-((R)-3-amino-7-(4-fluorophenyl)-3-(trifluoromethyl)-2,3-dihydrofuro[2,3-c]pyridin-5-yl)-2-hydroxypropyl)-3,4-dicyclopropoxybenzamide] | < 200 | < 200 |  | 
N[C@@]1(C(F)(F)F)COc2c1cc([C@@](O)(CNC(=O)c1cc(OC3CC3)c3ncccc3c1)C1COC1)nc2-c1ccc(F)cc1 [Example 58] |  | > 200 |  | 
N[C@@]1(C(F)(F)F)COc2c1cc([C@](O)(CO)CNC(=O)c1cc(OC3CC3)c3ncccc3c1)nc2-c1ccc(F)cc1 [Example 59] |  | > 200 |  | 
N[C@@]1(C(F)(F)F)COc2c1cc([C@@](O)(CNC(=O)c1cc(OC3CC3)c3c(ccc[n+]3[O-])c1)C1CC1)nc2-c1ccc(F)cc1 [Example 59b] |  | > 200 |  | 
N[C@@]1(C(F)(F)F)COc2c1cc([C@@](O)(CNC(=O)c1cc(OC3CC3)c3[nH]c(=O)ccc3c1)C1CC1)nc2-c1ccc(F)cc1 [Example 59c] |  | > 200 |  | 
N[C@@]1(C(F)(F)F)COc2c1cc([C@@](O)(CNC(=O)c1cc(OC3CC3)c3nc(Cl)ccc3c1)C1CC1)nc2-c1ccc(F)cc1 [Example 59d] |  | < 200 |  | 
Cc1ccc2cc(C(=O)NC[C@](O)(c3cc4c(c(-c5ccc(F)cc5)n3)OC[C@@]4(N)C(F)(F)F)C3CC3)cc(OC3CC3)c2n1 [Example 59e] |  | < 200 |  | 
Cn1cc2cc(C(=O)NC[C@](O)(c3cc4c(c(-c5ccc(F)cc5)n3)OC[C@@]4(N)C(F)(F)F)C3CC3)cc(F)c2n1 [Example 64] |  | < 200 |  | 
